Laboratory results reported in patent US10703727B2, “Method for preparing substituted 3-(2-anilino-1-cyclohexyl-1H-benzimidazol-5-yl)propanoic acid derivatives” (Bayer Pharma Aktiengesellschaft, priority 2015, dated 2020).

Assays:
IDH1 R132H [1] = molecular target: T1, IDH1 R132H (Homo sapiens, UniProt O75874, R132H); experiment: Inhibition of IDH1 R132H in a biochemical assay (NADPH consumption, luminescence); settings: 1.5 nM enzyme, 1 μM NADPH, 250 μM α-KG, 32° C., 30 minutes
Method: NADPH consumption is determined by luminescence.
Test compounds were assayed in a concentration range of 0.002 to 10 μM. The final DMSO concentration was 2.4%.
The luminescence was determined using a luminescence reader (10 seconds measurement time, 1 second integration period, 30% sensitivity). The drop in luminescence is proportional to the activity of mIDH1. IC50 values were determined by interpolation from plots of the relative luminescence against the inhibitor concentration.

IDH1 R132H [2] = molecular target: T1, IDH1 R132H; experiment: Cellular assay: 2-HG in medium of LN229 R132H cells overexpressing mutated IDH; format: cell-based; settings: 24 hours
Method: Concentrations of (2R)-2-hydroxyglutarate (2HG) were determined in a medium of a cell line having an overexpession of the mutated isocitrate dehydrogenase protein. mIDH catalyses the NADPH-dependent reduction of alpha-ketoglutarate to 2-HG. […] The cells were obtained using trypsin and placed in 96-well titre plates. The cells were incubated overnight at 37° C. in 5% CO2. On the next day, test compounds were added to the cells. The final concentration of DMSO was 0.1% and DMSO controls were used. The titre plates were then placed in an incubator for 24 hours.
2-HG was measured using the method published by Balss et al. (Acta Neuropathol (2012) 124: 883-891). HClO4 was added to each well and the titre plates were centrifuged. Aliquots were removed and incubated with hydroxyglutarate dehydrogenase (HGDH), diaphorase, NAD+ and resazurin. The conversion of resazurin to resorufin was determined by fluorescence spectroscopy at Ex 540 nm Em 600 nm. The increase in the fluorescence signal is proportional to formation of 2-HG. IC50 values were determined by interpolation from plots of the relative fluorescence against the inhibitor concentration.

T1 sequence (O75874 whole entry R132H): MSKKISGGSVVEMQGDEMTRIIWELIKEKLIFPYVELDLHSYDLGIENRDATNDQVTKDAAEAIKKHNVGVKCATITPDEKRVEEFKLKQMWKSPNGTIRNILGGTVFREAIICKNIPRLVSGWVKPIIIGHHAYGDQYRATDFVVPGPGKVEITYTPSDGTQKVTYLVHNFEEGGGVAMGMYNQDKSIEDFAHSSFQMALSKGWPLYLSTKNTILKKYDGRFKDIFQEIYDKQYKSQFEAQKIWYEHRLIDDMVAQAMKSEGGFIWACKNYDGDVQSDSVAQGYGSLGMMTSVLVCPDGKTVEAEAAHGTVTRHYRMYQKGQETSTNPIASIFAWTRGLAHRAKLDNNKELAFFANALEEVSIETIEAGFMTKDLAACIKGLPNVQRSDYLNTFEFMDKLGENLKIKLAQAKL

IC50 (IDH1 R132H [1]) [nM]	IC50 (IDH1 R132H [2]) [nM]	SMILES
50	400	CC(C)c1ccc(Nc2nc3cc(CCC(=O)O)ccc3n2C2CCCC(C)(C)C2)cc1 (racemic) [(±) 3-(1-[3,3-Dimethylcyclohexyl]-2-{[4-(propan-2-yl)phenyl]amino}-1H-benzimidazol-5-yl)propanoic acid]
300	850	CC(C)Oc1ccc(Nc2nc3cc(CCC(=O)O)ccc3n2C2CCCC(C)(C)C2)cc1 (racemic) [(±) 3-(1-[3,3-Dimethylcyclohexyl]-2-{[4-(propan-2-yloxy)phenyl]amino}-1H-benzimidazol-5-yl)propanoic acid]
60	850	CC1(C)CCCC(n2c(Nc3ccc(OC(F)(F)F)cc3)nc3cc(CCC(=O)O)ccc32)C1 (racemic) [(±) 3-(1-[3,3-dimethylcyclohexyl]-2-{[4-(trifluoromethoxy)phenyl]amino}-1H-benzimidazol-5-yl)propanoic acid]
20	80	CC(C)c1ccc(Nc2nc3cc(CCC(=O)O)ccc3n2[C@H]2C[C@@H](C)CC(C)(C)C2)cc1 (racemic) [(±) 3-(2-{[4-(Propan-2-yl)phenyl]amino}-1-[(cis)-3,3,5-trimethylcyclohexyl]-1H-benzimidazol-5-yl)propanoic acid]
60	400	CC(C)Oc1ccc(Nc2nc3cc(CCC(=O)O)ccc3n2[C@H]2C[C@@H](C)CC(C)(C)C2)cc1 (racemic) [(±) 3-(2-{[4-(Propan-2-yloxy)phenyl]amino}-1-[(cis)-3,3,5-trimethylcyclohexyl]-1H-benzimidazol-5-yl)propanoic acid]
40	70	C[C@@H]1C[C@H](n2c(Nc3ccc(C(F)(F)F)cc3)nc3cc(CCC(=O)O)ccc32)CC(C)(C)C1 (racemic) [(±) 3-(2-{[4-(Trifluoromethyl)phenyl]amino}-1-[(cis)-3,3,5-trimethylcyclohexyl]-1H-benzimidazol-5-yl)propanoic acid]
170	90	COC(=O)CCc1ccc2c(c1)nc(Nc1ccc(C(C)C)cc1)n2[C@H]1C[C@@H](C)CC(C)(C)C1 (racemic) [(±) Methyl 3-(2-{[4-(propan-2-yl)phenyl]amino}-1-[(cis)-3,3,5-trimethylcyclohexyl]-1H-benzimidazol-5-yl)propanoate]
300	300	COC(=O)CCc1ccc2c(c1)nc(Nc1ccc(OC(F)(F)F)cc1)n2[C@H]1C[C@@H](C)CC(C)(C)C1 (racemic) [(±) Methyl 3-(2-{[4-(trifluoromethoxy)phenyl]amino}-1-[(cis)-3,3,5-trimethylcyclohexyl]-1H-benzimidazol-5-yl)propanoate]
